This is an account of results in patent US8772280B2, “N-aryl-2-(2-arylaminopyrimidin-4-yl)pyrrol-4-carboxamide derivatives as MPS1 kinase inhibitors” (Nerviano Medical Sciences S.R.L., priority 2009, dated 2014).

Broadly, the IC50 is the concentration needed to halve the response being measured. Lower therefore signals higher potency.

Each structure is given as a SMILES string.

Chain of MPS1 (P33981 2-857): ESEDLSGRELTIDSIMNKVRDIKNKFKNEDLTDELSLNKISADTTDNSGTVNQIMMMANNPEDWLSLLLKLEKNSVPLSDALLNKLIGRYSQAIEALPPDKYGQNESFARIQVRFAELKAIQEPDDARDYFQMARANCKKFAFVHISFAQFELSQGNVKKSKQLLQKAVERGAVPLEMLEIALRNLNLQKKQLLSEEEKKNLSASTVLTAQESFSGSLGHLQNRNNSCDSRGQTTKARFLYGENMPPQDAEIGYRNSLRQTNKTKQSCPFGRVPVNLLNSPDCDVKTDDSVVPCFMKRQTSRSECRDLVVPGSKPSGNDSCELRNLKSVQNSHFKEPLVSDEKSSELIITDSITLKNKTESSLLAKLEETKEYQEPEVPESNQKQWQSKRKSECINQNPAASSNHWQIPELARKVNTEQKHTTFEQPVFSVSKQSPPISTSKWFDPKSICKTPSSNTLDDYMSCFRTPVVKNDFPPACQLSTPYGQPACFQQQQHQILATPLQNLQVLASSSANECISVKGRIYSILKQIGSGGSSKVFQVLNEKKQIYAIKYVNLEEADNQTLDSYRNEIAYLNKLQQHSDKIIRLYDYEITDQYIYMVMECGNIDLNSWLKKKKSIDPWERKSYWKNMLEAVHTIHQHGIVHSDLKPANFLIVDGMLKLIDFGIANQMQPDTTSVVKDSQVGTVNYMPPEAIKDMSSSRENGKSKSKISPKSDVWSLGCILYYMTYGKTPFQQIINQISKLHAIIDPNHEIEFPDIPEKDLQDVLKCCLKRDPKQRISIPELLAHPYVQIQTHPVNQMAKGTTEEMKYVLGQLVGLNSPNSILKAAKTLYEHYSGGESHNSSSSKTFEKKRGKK

In this experiment the target is MPS1 (Homo sapiens, UniProt P33981). Put plainly: biochemical. The method, then:
Amplification was performed using the forward oligonucleotide:
The inhibitory activity of putative kinase inhibitors and the potency of selected compounds were determined using a trans-phosphorylation assay.
Three cycles of mixing are done immediately after the addition of the resin.
For the compound `CCc1cccc(CC)c1NC(=O)c1cc(-c2ccnc(Nc3ccc(C(=O)N(C)C)cc3C)n2)n(C)c1` [Compound 14, 5-[2-(4-Dimethylcarbamoyl-2-methyl-phenylamino)-pyrimidin-4-yl]-1-methyl-1H-pyrrole-3-carboxylic acid (2,6-diethyl-phenyl)-amide], the IC50 was found to be 41 nM.

Regarding `CCc1cccc(CC)c1NC(=O)c1cc(-c2nc(Nc3ccc(C(N)=O)cc3C)ncc2Cl)n(C)c1Cl` [Compound 21, 5-[2-(4-Carbamoyl-2-methyl-phenylamino)-5-chloro-pyrimidin-4-yl]-2-chloro-1-methyl-1H-pyrrole-3-carboxylic acid (2,6-diethyl-phenyl)-amide], the IC50 turned out to be 22 nM.

In turn, `CCc1cccc(CC)c1NC(=O)c1cc(-c2nc(Nc3ccc(C(=O)N4CCC(N(C)C)CC4)cc3C)ncc2C)n(C)c1` [Compound 31, 5-{2-[4-(4-Dimethylamino-piperidine-1-carbonyl)-2-methyl-phenylamino]-5-methyl-pyrimidin-4-yl}-1-methyl-1H-pyrrole-3-carboxylic acid (2,6-diethyl-phenyl)-amide] gave a half-maximal inhibitory concentration (IC50) of 67 nM.

`CCc1cccc(CC)c1NC(=O)c1cc(-c2ccnc(Nc3ccc(N(C)CCCN(C)C)cc3OC)n2)n(C)c1` [Compound 32, 5-(2-{4-[(3-Dimethylamino-propyl)-methyl-amino]-2-methoxy-phenylamino}-pyrimidin-4-yl)-1-methyl-1H-pyrrole-3-carboxylic acid (2,6-diethyl-phenyl)-amide] returned an IC50 of 110 nM.

`COc1cc(N2CCN(C)CC2)ccc1Nc1nccc(-c2cc(C(=O)Nc3c(C)cccc3Cl)cn2C)n1` [Compound 37, 5-{2-[2-Methoxy-4-(4-methyl-piperazin-1-yl)-phenylamino]-pyrimidin-4-yl}-1-methyl-1H-pyrrole-3-carboxylic acid (2-chloro-6-methyl-phenyl)-amide]: the IC50 was determined as 84 nM.
